Measured values from paper PMC5007978, “A chemical with proven clinical safety rescues Down-syndrome-related phenotypes in through DYRK1A inhibition” (Disease Models & Mechanisms, 2016).

Molecular target: T1, DYRK3 (Homo sapiens, UniProt O43781)
T1 construct: purchased Life Technologies (Kinase Profiler service)
T1 sequence (O43781 1-588): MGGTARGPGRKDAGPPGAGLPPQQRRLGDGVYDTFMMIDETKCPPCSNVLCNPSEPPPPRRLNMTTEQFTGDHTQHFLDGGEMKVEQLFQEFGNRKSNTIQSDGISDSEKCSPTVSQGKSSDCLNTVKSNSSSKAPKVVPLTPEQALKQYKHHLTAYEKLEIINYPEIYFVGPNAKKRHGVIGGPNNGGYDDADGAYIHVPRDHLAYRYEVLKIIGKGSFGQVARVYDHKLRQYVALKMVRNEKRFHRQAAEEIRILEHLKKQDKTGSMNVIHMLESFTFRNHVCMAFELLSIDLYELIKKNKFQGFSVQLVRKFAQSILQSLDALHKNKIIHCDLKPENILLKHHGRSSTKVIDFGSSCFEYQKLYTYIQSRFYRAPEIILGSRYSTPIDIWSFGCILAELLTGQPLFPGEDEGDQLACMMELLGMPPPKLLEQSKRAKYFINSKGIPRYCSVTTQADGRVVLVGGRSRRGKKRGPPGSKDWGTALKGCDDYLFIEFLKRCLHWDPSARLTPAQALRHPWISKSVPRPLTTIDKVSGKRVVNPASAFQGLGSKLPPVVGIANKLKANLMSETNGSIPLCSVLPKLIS
Assay: In vitro kinase assay, recombinant human DYRK3 (Life Technologies)
Assay type: biochemical

O=C(O)c1ccc2c(c1)nc(Nc1cccc(Cl)c1)c1ccncc12 [CX-4945]
IC50: 18 nM
